assay: log P by HPLC on a reversed-phase column (C18), EEC Directive 79/831 Annex V.A8; type: physicochemical; conditions: HCOOH
Method: The stated log P values were determined in accordance with EEC Directive 79/831 Annex V.A8 by HPLC (High Performance Liquid Chromatography) using a reversed-phase column (C18).

Structure (SMILES) | log P (HCOOH)
Cc1cc(-n2nc(C)c(-c3ccc(Cl)c(Cl)c3)c2N)ccc1C(=O)NCc1ccccn1 [I-A-Q2-365] | I-A-Q2-365: log P (HCOOH): 2.27
CC(NC(=O)c1ccc(-n2nc(C(F)(F)F)c(-c3cc(Cl)cc(Cl)c3)c2N)cc1)C(F)(F)F (stereo not drawn) [I-A-Q2-133] | I-A-Q2-133: log P (HCOOH): 4.44
Cc1cc(-n2nc(C)c(-c3ccc(F)cc3)c2N)ccc1C(=O)NCC(F)(F)C(F)F [I-A-Q2-326] | I-A-Q2-326: log P (HCOOH): 2.51
Nc1c(-c2ccc(Cl)c(F)c2)c(C(F)(F)F)nn1-c1ccc(C(=O)NC2CC2)cc1 [I-A-Q2-170] | I-A-Q2-170: log P (HCOOH): 3.15
C[S+]([O-])c1cc(-n2nc(C(F)(F)F)c(-c3cc(Cl)cc(Cl)c3)c2N)ccc1C(=O)NCc1ccccn1 (stereo not drawn) [I-A-Q2-424] | I-A-Q2-424: log P (HCOOH): 2.75
Cc1cc(-n2nc(C(F)(F)F)c(Cl)c2N)ccc1C(=O)NCc1ccccn1 [XI-A-091] | XI-A-091: log P (HCOOH): 1.94
Cc1cc(-n2nc(C)c(-c3ccc(F)cc3Cl)c2N)ccc1C(=O)NCc1ccccn1 [I-A-Q2-368] | I-A-Q2-368: log P (HCOOH): 1.79
Cc1cc(-n2nc(C(F)(F)F)c(-c3cc(Cl)cc(Cl)c3)c2N)ccc1C(=O)NC(c1ccccc1)C(F)(F)F (stereo not drawn) [I-A-Q2-241] | I-A-Q2-241: log P (HCOOH): 4.89
Cc1cc(-n2nc(C(F)(F)F)c(-c3cc(Cl)cc(Cl)c3)c2N)ccc1C(=O)N(C)C(C)c1cccnc1 (stereo not drawn) [I-A-Q2-208] | I-A-Q2-208: log P (HCOOH): 3.19
Cc1cc(-n2nc(C(F)(F)F)c(-c3cc(Cl)cc(Cl)c3)c2N)ccc1C(=O)N(C)Cc1cccnc1 [I-A-Q2-209] | I-A-Q2-209: log P (HCOOH): 3.02
CS(=O)(=O)c1cc(-n2nc(C(F)(F)F)c(-c3cc(Cl)cc(Cl)c3)c2N)ccc1C(=O)NCc1ccccn1 [I-A-Q2-425] | I-A-Q2-425: log P (HCOOH): 2.99
CCCNC(=O)c1ccc(-n2nc(C(F)(F)F)c(-c3cc(Cl)cc(Cl)c3)c2N)cc1 [I-A-Q2-151] | I-A-Q2-151: log P (HCOOH): 4.06
CC(NC(=O)c1ccc(-n2nc(C(F)(F)F)c(-c3cccc(F)c3)c2N)cc1)C(F)(F)F (stereo not drawn) [I-A-Q2-182] | I-A-Q2-182: log P (HCOOH): 3.33
Nc1c(-c2ccc(F)c(F)c2)c(C(F)(F)F)nn1-c1ccc(C(=O)NC2CC2)cc1 [I-A-Q2-176] | I-A-Q2-176: log P (HCOOH): 2.89
Cc1cc(-n2nc(C(F)(F)F)c(-c3cc(Cl)cc(Cl)c3)c2N)ccc1C(=O)NCc1ccccc1 [I-A-Q2-271] | I-A-Q2-271: log P (HCOOH): 4.45
CC(C)CC(NC(=O)c1ccc(-n2nc(C(F)(F)F)c(-c3cc(Cl)cc(Cl)c3)c2N)cc1)C(F)(F)F (stereo not drawn) [I-A-Q2-070] | I-A-Q2-070: log P (HCOOH): 5.25
Cc1cc(-n2nc(C(F)(F)F)c(-c3cc(Cl)cc(Cl)c3)c2N)ccc1C(=O)NC1CC1F (stereo not drawn) [I-A-Q2-281] | I-A-Q2-281: log P (HCOOH): 3.97
CC(NC(=O)c1ccc(-n2nc(C(F)(F)F)c(-c3cccc(Cl)c3)c2N)cc1)c1ccccc1 (stereo not drawn) [I-A-Q2-089] | I-A-Q2-089: log P (HCOOH): 3.89
Cc1cc(CNC(=O)c2ccc(-n3nc(C(F)(F)F)c(-c4cc(Cl)cc(Cl)c4)c3N)cc2C)[nH]n1 [I-A-Q2-259] | I-A-Q2-259: log P (HCOOH): 3.33

same assay, conditions: HCOOH; Table 4, compounds of formula I-A-Q4

Structure (SMILES) | log P (HCOOH)
Nc1c(-c2ccc(Cl)c(F)c2)c(C(F)(F)F)nn1-c1ccc(C(=O)O)cc1 [I-A-Q4-093] | I-A-Q4-093: log P (HCOOH): 3.39
N#Cc1cc(-n2nc(C(F)(F)F)c(-c3cc(Cl)cc(Cl)c3)c2N)ccc1F [I-A-Q4-103] | I-A-Q4-103: log P (HCOOH): 4.44

same assay, conditions: HPLC, reversed-phase C18, mobile phase with formic acid

Structure (SMILES) | log P (HCOOH)
Cc1nc(C)n(-c2ccc(-n3nc(C(F)(F)F)c(-c4cc(Cl)cc(Cl)c4)c3N)cc2C#N)n1 [I-A-Q1-083] | I-A-Q1-083: log P (HCOOH): 3.84
N#Cc1cc(-n2nc(C(F)(F)F)c(-c3cc(Cl)cc(Cl)c3)c2N)ccc1-n1cc(Br)cn1 [I-A-Q1-078] | I-A-Q1-078: log P (HCOOH): 4.83
N#Cc1cc(-n2nc(C(F)(F)F)c(-c3ccc(Br)cc3)c2N)ccc1-n1cncn1 [I-A-Q1-040] | I-A-Q1-040: log P (HCOOH): 3.44
